Data as given in patent US6525001B1, “Substituted pyrimidine and pyridine herbicides” (Mid-American Commercialization Corporation, priority 1997, dated 2003).

Tests used:
Assay in all cases: Test B pre-/postemergence
Type in all cases: in vivo
Set-up in all cases: key: 0 is no effect; 10 is complete control
[1] = test system: bedstraw (Galium aparine)
Method in brief: (§1)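 Seeds were planted and sprayed preemergence, while plants at 2 to 18 cm (1- to 4-leaf stage) were sprayed postemergence at the same time, with test chemical in a non-phytotoxic solvent mixture containing surfactant. After twelve to sixteen days in a greenhouse, injury was rated visually against untreated controls on a 0–10 scale.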

[2] = test system: blackgrass (Alopecurus myosuroides)
Method in brief: as §1

[3] = test system: broadleaf signalgrass (Brachiaria decumbens)
Method in brief: as §1

[4] = test system: cocklebur (Xanthium strumarium)
Method in brief: as §1

corn (Zea mays) = test system: corn (Zea mays)
Method in brief: as §1

[5] = test system: crabgrass (Digitaria sanguinalis)
Method in brief: as §1

[6] = test system: momingglory (Ipomoea hederacea)
Method in brief: as §1

[7] = test system: pigweed (Amaranthus retroflexus)
Method in brief: as §1

rape (Brassica napus) = test system: rape (Brassica napus)
Method in brief: as §1

soybean (Glycine max) = test system: soybean (Glycine max)
Method in brief: as §1

[8] = test system: sugar beet (Beta vulgaris)
Method in brief: as §1

[9] = test system: velvetleaf (Abutilon theophrasti)
Method in brief: as §1

[10] = test system: wheat (Triticum aestivum)
Method in brief: as §1

wild oat (Avena fatua) = test system: wild oat (Avena fatua)
Method in brief: as §1

Which results are given for `Cc1cnc(-c2ccc(OC(F)(F)F)cc2)nc1Cc1cccc(C(F)(F)F)c1` [Compound 16]?
Plant response rating, Bedstraw ([1]; Rate 62 g/ha, Postemergence): 3; Bedstraw plant response rating ([1]; Rate 62 g/ha, Preemergence): 0; Plant response rating, Bedstraw ([1]; Rate 125 g/ha, Postemergence): 4; Bedstraw plant response rating ([1]; Rate 125 g/ha, Preemergence): 0; Plant response rating, Bedstraw ([1]; Rate 250 g/ha, Postemergence): 4; Plant response rating, Bedstraw ([1]; Rate 250 g/ha, Preemergence): 0; Plant response rating, Bedstraw ([1]; Rate 500 g/ha, Postemergence): 5; Plant response rating, Bedstraw ([1]; Rate 500 g/ha, Preemergence): 1; Plant response rating, Blackgrass ([2]; Rate 62 g/ha, Postemergence): 1; Blackgrass plant response rating ([2]; Rate 62 g/ha, Preemergence): 0; Plant response rating, Blackgrass ([2]; Rate 125 g/ha, Postemergence): 1; Blackgrass plant response rating ([2]; Rate 125 g/ha, Preemergence): 0; Plant response rating, Blackgrass ([2]; Rate 250 g/ha, Postemergence): 2; Plant response rating, Blackgrass ([2]; Rate 250 g/ha, Preemergence): 2; Plant response rating, Blackgrass ([2]; Rate 500 g/ha, Postemergence): 3; Plant response rating, Blackgrass ([2]; Rate 500 g/ha, Preemergence): 4; Plant response rating, B. signalgrass ([3]; Rate 62 g/ha, Postemergence): 1; B. signalgrass plant response rating ([3]; Rate 62 g/ha, Preemergence): 0; Plant response rating, B. signalgrass ([3]; Rate 125 g/ha, Postemergence): 1; B. signalgrass plant response rating ([3]; Rate 125 g/ha, Preemergence): 2; Plant response rating, B. signalgrass ([3]; Rate 250 g/ha, Postemergence): 1; Plant response rating, B. signalgrass ([3]; Rate 250 g/ha, Preemergence): 3; Plant response rating, B. signalgrass ([3]; Rate 500 g/ha, Postemergence): 1; Plant response rating, B. signalgrass ([3]; Rate 500 g/ha, Preemergence): 7; Plant response rating, Cocklebur ([4]; Rate 62 g/ha, Postemergence): 4; Cocklebur plant response rating ([4]; Rate 62 g/ha, Preemergence): 0; Plant response rating, Cocklebur ([4]; Rate 125 g/ha, Postemergence): 4; Cocklebur plant response rating ([4]; Rate 125 g/ha, Preemergence): 0; Plant response rating, Cocklebur ([4]; Rate 250 g/ha, Postemergence): 5; Plant response rating, Cocklebur ([4]; Rate 250 g/ha, Preemergence): 0; Plant response rating, Cocklebur ([4]; Rate 500 g/ha, Postemergence): 6; Plant response rating, Cocklebur ([4]; Rate 500 g/ha, Preemergence): 0; Plant response rating, Corn (corn (Zea mays); Rate 62 g/ha, Postemergence): 1; Corn plant response rating (corn (Zea mays); Rate 62 g/ha, Preemergence): 0; Plant response rating, Corn (corn (Zea mays); Rate 125 g/ha, Postemergence): 1; Corn plant response rating (corn (Zea mays); Rate 125 g/ha, Preemergence): 0; Plant response rating, Corn (corn (Zea mays); Rate 250 g/ha, Postemergence): 1; Plant response rating, Corn (corn (Zea mays); Rate 250 g/ha, Preemergence): 0; Plant response rating, Corn (corn (Zea mays); Rate 500 g/ha, Postemergence): 1; Plant response rating, Corn (corn (Zea mays); Rate 500 g/ha, Preemergence): 0; Plant response rating, Crabgrass ([5]; Rate 62 g/ha, Postemergence): 2; Crabgrass plant response rating ([5]; Rate 62 g/ha, Preemergence): 0; Plant response rating, Crabgrass ([5]; Rate 125 g/ha, Postemergence): 2; Crabgrass plant response rating ([5]; Rate 125 g/ha, Preemergence): 0; Plant response rating, Crabgrass ([5]; Rate 250 g/ha, Postemergence): 2; Plant response rating, Crabgrass ([5]; Rate 250 g/ha, Preemergence): 2; Plant response rating, Crabgrass ([5]; Rate 500 g/ha, Postemergence): 7; Plant response rating, Crabgrass ([5]; Rate 500 g/ha, Preemergence): 8; Morningglory plant response rating ([6]; Rate 62 g/ha, Preemergence): 0; Plant response rating, Morningglory ([6]; Rate 125 g/ha, Postemergence): 1; Morningglory plant response rating ([6]; Rate 125 g/ha, Preemergence): 0; Plant response rating, Morningglory ([6]; Rate 250 g/ha, Postemergence): 1; Plant response rating, Morningglory ([6]; Rate 250 g/ha, Preemergence): 0; Plant response rating, Morningglory ([6]; Rate 500 g/ha, Postemergence): 1; Plant response rating, Morningglory ([6]; Rate 500 g/ha, Preemergence): 1; Plant response rating, Redroot pigweed ([7]; Rate 62 g/ha, Postemergence): 5; Redroot pigweed plant response rating ([7]; Rate 62 g/ha, Preemergence): 0; Plant response rating, Redroot pigweed ([7]; Rate 125 g/ha, Postemergence): 6; Redroot pigweed plant response rating ([7]; Rate 125 g/ha, Preemergence): 0; Plant response rating, Redroot pigweed ([7]; Rate 250 g/ha, Postemergence): 8; Plant response rating, Redroot pigweed ([7]; Rate 250 g/ha, Preemergence): 8; Plant response rating, Redroot pigweed ([7]; Rate 500 g/ha, Postemergence): 9; Plant response rating, Redroot pigweed ([7]; Rate 500 g/ha, Preemergence): 8; Plant response rating, Rape (rape (Brassica napus); Rate 62 g/ha, Postemergence): 1; Rape plant response rating (rape (Brassica napus); Rate 62 g/ha, Preemergence): 0; Plant response rating, Rape (rape (Brassica napus); Rate 125 g/ha, Postemergence): 2; Rape plant response rating (rape (Brassica napus); Rate 125 g/ha, Preemergence): 0; Plant response rating, Rape (rape (Brassica napus); Rate 250 g/ha, Postemergence): 2; Plant response rating, Rape (rape (Brassica napus); Rate 250 g/ha, Preemergence): 0; Plant response rating, Rape (rape (Brassica napus); Rate 500 g/ha, Postemergence): 5; Plant response rating, Rape (rape (Brassica napus); Rate 500 g/ha, Preemergence): 1; Plant response rating, Soybean (soybean (Glycine max); Rate 62 g/ha, Postemergence): 3; Soybean plant response rating (soybean (Glycine max); Rate 62 g/ha, Preemergence): 0; Plant response rating, Soybean (soybean (Glycine max); Rate 125 g/ha, Postemergence): 3; Soybean plant response rating (soybean (Glycine max); Rate 125 g/ha, Preemergence): 0; Plant response rating, Soybean (soybean (Glycine max); Rate 250 g/ha, Postemergence): 4; Plant response rating, Soybean (soybean (Glycine max); Rate 250 g/ha, Preemergence): 0; Plant response rating, Soybean (soybean (Glycine max); Rate 500 g/ha, Postemergence): 4; Plant response rating, Soybean (soybean (Glycine max); Rate 500 g/ha, Preemergence): 0; Plant response rating, Sugarbeets ([8]; Rate 62 g/ha, Postemergence): 8; Sugarbeets plant response rating ([8]; Rate 62 g/ha, Preemergence): 0; Plant response rating, Sugarbeets ([8]; Rate 125 g/ha, Postemergence): 8; Sugarbeets plant response rating ([8]; Rate 125 g/ha, Preemergence): 1; Plant response rating, Sugarbeets ([8]; Rate 250 g/ha, Postemergence): 9; Plant response rating, Sugarbeets ([8]; Rate 250 g/ha, Preemergence): 7; Plant response rating, Sugarbeets ([8]; Rate 500 g/ha, Postemergence): 9; Plant response rating, Sugarbeets ([8]; Rate 500 g/ha, Preemergence): 9; Plant response rating, Velvetleaf ([9]; Rate 62 g/ha, Postemergence): 1; Velvetleaf plant response rating ([9]; Rate 62 g/ha, Preemergence): 0; Plant response rating, Velvetleaf ([9]; Rate 125 g/ha, Postemergence): 2; Velvetleaf plant response rating ([9]; Rate 125 g/ha, Preemergence): 0; Plant response rating, Velvetleaf ([9]; Rate 250 g/ha, Postemergence): 2; Plant response rating, Velvetleaf ([9]; Rate 250 g/ha, Preemergence): 1; Plant response rating, Velvetleaf ([9]; Rate 500 g/ha, Postemergence): 2; Plant response rating, Velvetleaf ([9]; Rate 500 g/ha, Preemergence): 1; Plant response rating, Wheat ([10]; Rate 62 g/ha, Postemergence): 0; Wheat plant response rating ([10]; Rate 62 g/ha, Preemergence): 0; Plant response rating, Wheat ([10]; Rate 125 g/ha, Postemergence): 0; Wheat plant response rating ([10]; Rate 125 g/ha, Preemergence): 0; Plant response rating, Wheat ([10]; Rate 250 g/ha, Postemergence): 0; Plant response rating, Wheat ([10]; Rate 250 g/ha, Preemergence): 0; Plant response rating, Wheat ([10]; Rate 500 g/ha, Postemergence): 1; Plant response rating, Wheat ([10]; Rate 500 g/ha, Preemergence): 0; Plant response rating, Wild oats (wild oat (Avena fatua); Rate 62 g/ha, Postemergence): 0; Wild oats plant response rating (wild oat (Avena fatua); Rate 62 g/ha, Preemergence): 0; Plant response rating, Wild oats (wild oat (Avena fatua); Rate 125 g/ha, Postemergence): 0; Wild oats plant response rating (wild oat (Avena fatua); Rate 125 g/ha, Preemergence): 1; Plant response rating, Wild oats (wild oat (Avena fatua); Rate 250 g/ha, Postemergence): 1; Plant response rating, Wild oats (wild oat (Avena fatua); Rate 250 g/ha, Preemergence): 2; Plant response rating, Wild oats (wild oat (Avena fatua); Rate 500 g/ha, Postemergence): 1; Plant response rating, Wild oats (wild oat (Avena fatua); Rate 500 g/ha, Preemergence): 3
